This note sets out measurements from PMC5526551, “New hydrazonoindolin-2-ones: Synthesis, exploration of the possible anti-proliferative mechanism of action and encapsulation into PLGA microspheres” (PLoS ONE, 2017).

Like-named read-outs stand apart in the source and are kept apart here.

The subject of assay [1] is phosphorylated Rb protein in A549 cells. Nature of the assay: Rb phosphorylation (immunofluorescent imaging). Conditions: Homo sapiens, read-out: IC50 for reduction in Rb phosphorylation. It is filed as cell-based. Here is the method:
Compound 7e was analyzed for effects on various aspects of cell cycle progression in human cancer cells. These studies were carried out using cells derived from lung adenocarcinoma (A549). This follow-up assessment of activity tested compounds used immunofluorescent imaging of phosphorylated Rb protein and the total DNA content of each cell to determine the cell cycle phase. The ability of the test compounds to affect the cell cycle and Rb phosphorylation was tested over a range of concentrations from less than 100 nM to 50 μM.
Fig 5 Dose-dependent changes in cell cycle. Distribution of cells within the cell cycle as well as total cell numbers were quantitated by fluorescent staining of nuclear DNA with DAPI. Phosphorylated Rb protein was detected by indirect immunofluorescence followed by automated image acquisition and analysis. […] All IC50 values are given under one unlabelled substance, with the y-axis title of each plot written in front as the measure.
A549 cells were harvested from a 90% confluent 10 cm dish and diluted in growth medium. An appropriate concentration of cells were prepared to add 5,000 cells in a volume of 100 µL per well in tissue culture treated PerkinElmer optical bottom ViewPlate microplates, then incubated overnight at 37°C. The following day, compound 7e and the positive control, sunitinib, were diluted in DMSO to concentrations 1000-fold above the maximum tested concentration.
Concentrated dosing solutions of twice the final concentration were prepared by dilution of the DMSO stocks 1:500 in growth media. Three-fold dilutions of each dosing medium were then prepared in medium containing 0.2% DMSO to maintain a constant concentration of vehicle throughout the concentration range of each compound. Each of these was added in equal volume (100 µL) to each well on the assay plate, along with the vehicle control. One plate of cells was incubated with the compounds for a further 24 h, and a separate plate was incubated with the compounds for 48 h.
At the end of the respective treatment periods, 150 µL per well of neutral buffered formalin fixative (10% paraformaldehyde) was rapidly added to each plate and incubated at room temperature for 20 min. […] Phosphorylated Rb protein (p-Rb) was detected by 1 h incubation with anti-p-Rb rabbit monoclonal antibody (Cell Signaling #8516) diluted 1:1600 in antibody dilution buffer (1% bovine serum albumin and 0.3% Triton X-100 in PBS). […] Anti-Phospho Ser807/811-Rb antibody (Cell Signalling cat #8516) was detected by 1 h incubation with goat anti-rabbit AlexaFluor 488 conjugate (InVitrogen cat #A-11008) diluted 1:500 in antibody dilution buffer. […] Fluorescent micrographs were analyzed using Molecular Devices MetaXpress multi-wavelength scoring image analysis program to quantitate Rb phosphorylation. […]

Assay [2] deals with ZR-75. Kind of assay: Anti-proliferative activity, cell growth inhibition (CellTiterGlo, 72 h). It is filed as cell-based, human. Conditions: Homo sapiens; for IC50: ZR75, 72 h; for inhibition at 30 µM: ZR75, quadruplicate, read-out: Cell growth inhibitory activity, ZR-75. The procedure: (§1) Twenty compounds, i.e. 4a-o and 7a-e, were analyzed for cancer cell growth inhibitory activity. These studies were carried out using cells derived from human lung, colon and breast tumors (A549, HT-29 and ZR-75 cells, respectively). This initial assessment of activity tested each compound in quadruplicate at a single concentration of 30 μM, if solubility permitted.
(§2) A549, HT-29, ZR-75 were obtained from the American Type Culture Collection (ATCC). Cells were harvested from 90-95% confluent 10 cm dishes, and diluted in growth media (RPMI-1640 supplemented with 5% fetal bovine serum). An appropriate concentration of cells were prepared to add 1,250 cells in a volume of 25 µL per well in tissue culture treated Griener 384-well microplates, then incubated overnight at 37°C. Compound 7e was diluted to a concentration of 30 µM in DMSO. Concentrated dosing solutions of twice the final concentration were prepared by dilution of the DMSO stocks 1:500 in growth media. Two-fold serial dilutions were then prepared in medium containing 0.2% DMSO to maintain a constant concentration of vehicle throughout the concentration range of the compound. Each of these was added in an equal volume (25 µL) to four wells on each cell assay plate, along with the vehicle control. The highest concentration for serial dilutions of the positive control (sunitinib) was prepared exactly as the experimental compound 7e. Cells were incubated with the compounds for a further 72 h.
(§3) At the end of the treatment period, assay plates were allowed to cool to RT for 10 min prior to the addition of 25 µL per well Promega CellTiterGlo reagent, followed by additional 10 min incubation at RT. The resulting luminescence was quantitated using a Molecular Devices Spectramax Paradigm.
(§4) Percent growth inhibition was calculated as follows, where 100 represents the viability of vehicle treated control samples:
(§5) The potency of compounds was determined using the non-linear dose response algorithm (four-parameter logistic fit) with GraphPad Prism 5 software.

Assay [3] has as its system HT-29. Described as above. It is filed as cell-based, human. The settings on record: Homo sapiens; for IC50: HT-29, 72 h, 72 h; for inhibition at 30 µM: HT-29, quadruplicate, read-out: Cell growth inhibitory activity, HT-29. The procedure:
as §1, §2, §3, §4, §5

Assay [4] deals with A549. The assay is described as above. It is filed as cell-based, human. Conditions: Homo sapiens; for IC50: A549, 72 h, read-out: IC50 A-549; for inhibition at 30 µM: A549, quadruplicate, read-out: Cell growth inhibitory activity, A-549. Here is the method:
as §1, §2, §3, §4, §5

Broadly, the IC50 is the concentration needed to halve the response being measured. As for `O=C1Nc2ccc(Br)cc2C1=NN=C1C(=O)N(Cc2ccccc2)c2ccccc21` [Compound 7e, 1-Benzyl-3-((5-bromo-2-oxoindolin-3-ylidene)hydrazono)indolin-2-one], the IC50 in assay [1] (A549, 24 h) is 2550 nM; in assay [1] (A549, 48 h), 2470 nM; in assay [2] it was 1790 nM; in assay [3], 2490 nM; in assay [4], 2830 nM. For the same compound, the inhibition at 30 µM in assay [2] was found to be 96.1 ± 4.6%; in assay [3], 95.7 ± 4.2%; in assay [4] it was 97.1 ± 3.3%.

Turning to `CCN(CC)CCNC(=O)c1c(C)[nH]c(/C=C2\C(=O)Nc3ccc(F)cc32)c1C` [Sunitinib, sunitinib, reference compound], the IC50 in assay [1] (A549, 24 h) was found to be 3160 nM; in assay [1] (A549, 48 h), 14000 nM; in assay [2] it was 8310 nM; in assay [3], 10100 nM; in assay [4], 5870 nM. The inhibition at 30 µM was 90.7 ± 4.5% in assay [2], 59.5 ± 2.3% in assay [3] and 85.7 ± 2.7% in assay [4].
